From PubChem BioAssay AID1963847 (Molecular Pharmacology Branch, DTP, NCI, 2024)

Test system: 415267-285-R-J2-PDC complex spheroid viability
Experiment: Anticancer human tumor 415267-285-R-J2-PDC patient-derived breast carcinoma cell line growth inhibition [POLQ]
Settings: for IC50: curve of first compound; for viability, T/C: stronger effect = lower value
Summary of the method: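 PDC + HUVEC + MSC complex spheroids; POLQ inhibitors ± partner drugs; top conc. at/near clinical Cmax, else 10 microM (SN-38 1 microM), half-log dilutions; 37 degrees C, 5% CO2.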

[1] = second compound 0.0316 µM, first compound 0.0316 µM
[2] = second compound 0.0316 µM, first compound 0.1 µM
[3] = second compound 0.0316 µM, first compound 0.316 µM
[4] = second compound 0.0316 µM, first compound 1 µM
[5] = second compound 0.0316 µM, first compound 3.16 µM
[6] = second compound 0.0316 µM, first compound 10 µM
[7] = second compound 0.1 µM, first compound 0.0316 µM
[8] = second compound 0.1 µM, first compound 0.1 µM
[9] = second compound 0.1 µM, first compound 0.316 µM
[10] = second compound 0.1 µM, first compound 1 µM
[11] = second compound 0.1 µM, first compound 3.16 µM
[12] = second compound 0.1 µM, first compound 10 µM
[13] = second compound 0.316 µM, first compound 0.0316 µM
[14] = second compound 0.316 µM, first compound 0.1 µM
[15] = second compound 0.316 µM, first compound 0.316 µM
[16] = second compound 0.316 µM, first compound 1 µM
[17] = second compound 0.316 µM, first compound 3.16 µM
[18] = second compound 0.316 µM, first compound 10 µM
[19] = second compound 1 µM, first compound 0.0316 µM
[20] = second compound 1 µM, first compound 0.1 µM
[21] = second compound 1 µM, first compound 0.316 µM
[22] = second compound 1 µM, first compound 1 µM
[23] = second compound 1 µM, first compound 3.16 µM
[24] = second compound 1 µM, first compound 10 µM
[25] = second compound 3.16 µM, first compound 0.0316 µM
[26] = second compound 3.16 µM, first compound 0.1 µM
[27] = second compound 3.16 µM, first compound 0.316 µM
[28] = second compound 3.16 µM, first compound 1 µM
[29] = second compound 3.16 µM, first compound 3.16 µM
[30] = second compound 3.16 µM, first compound 10 µM
[31] = second compound 10 µM, first compound 0.0316 µM
[32] = second compound 10 µM, first compound 0.1 µM
[33] = second compound 10 µM, first compound 0.316 µM
[34] = second compound 10 µM, first compound 1 µM
[35] = second compound 10 µM, first compound 3.16 µM
[36] = second compound 10 µM, first compound 10 µM
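Also: spheroids exposed to compounds for one week before readout.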
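For viability, T/C in this document: luminescence used as stand-in measure of viable cells; 100% = DMSO vehicle control viability.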

Work on CC(C)n1c(=O)n(C)c2cnc3cc(F)c(-c4ccc(OCCCN5CCCCC5)nc4)cc3c21 + COC1C(OC(N)=O)C(O)C(Oc2ccc3c(O)c(NC(=O)c4ccc(O)c(CC=C(C)C)c4)c(=O)oc3c2C)OC1(C)C yielded an IC50 (second compound 0.0316 µM) greater than 10 µM, an IC50 (second compound 0.1 µM) greater than 10 µM and an IC50 (second compound 0.316 µM) greater than 10 µM. It also gave an IC50 (second compound 1 µM) greater than 10 µM, an IC50 (second compound 3.16 µM) greater than 10 µM and an IC50 (second compound 10 µM) greater than 10 µM. For the same molecule, the viability, T/C [1] was 97.5%, the viability, T/C [2] was 97.6% and the viability, T/C [3] was 95.6%. It also gave a viability, T/C [4] of 94.1%, a viability, T/C [5] of 101% and a viability, T/C [6] of 99.2%. It also gave a viability, T/C [7] of 89.8%, a viability, T/C [8] of 93.6% and a viability, T/C [9] of 107%. It also gave a viability, T/C [10] of 104%, a viability, T/C [11] of 103% and a viability, T/C [12] of 95.3%. For the same molecule, the viability, T/C [13] was 96.8%, the viability, T/C [14] was 95.8% and the viability, T/C [15] was 104%. It also gave a viability, T/C [16] of 110%, a viability, T/C [17] of 112% and a viability, T/C [18] of 89.5%. For the same molecule, the viability, T/C [19] was 99.6%, the viability, T/C [20] was 103% and the viability, T/C [21] was 91.2%. The viability, T/C [22] was 102%, the viability, T/C [23] was 95.5% and the viability, T/C [24] was 97%. For the same molecule, the viability, T/C [25] was 107%, the viability, T/C [26] was 91.4% and the viability, T/C [27] was 89%. For the same molecule, the viability, T/C [28] was 98.2%, the viability, T/C [29] was 107% and the viability, T/C [30] was 98.8%. It also gave a viability, T/C [31] of 101%, a viability, T/C [32] of 99.5% and a viability, T/C [33] of 93.5%. It also gave a viability, T/C [34] of 114%, a viability, T/C [35] of 98.4% and a viability, T/C [36] of 82.5%.
Molecule CC1COCCN1c1cc(-c2ccnn2C)c2ccnc(-c3ccn[nH]3)c2n1 (stereo unspecified) + COC1C(OC(N)=O)C(O)C(Oc2ccc3c(O)c(NC(=O)c4ccc(O)c(CC=C(C)C)c4)c(=O)oc3c2C)OC1(C)C has an IC50 (second compound 0.0316 µM) of less than 0.0316 µM, an IC50 (second compound 0.1 µM) of 0.0363 µM and an IC50 (second compound 0.316 µM) of less than 0.0316 µM. The IC50 (second compound 1 µM) was 0.039 µM, the IC50 (second compound 3.16 µM) was 0.0354 µM and the IC50 (second compound 10 µM) was 0.0412 µM. For the same molecule, the viability, T/C [1] was 47%, the viability, T/C [2] was 12.6% and the viability, T/C [3] was 6.23%. The viability, T/C [4] was 5.27%, the viability, T/C [5] was 4.48% and the viability, T/C [6] was 3.41%. The viability, T/C [7] was 55.3%, the viability, T/C [8] was 11.5% and the viability, T/C [9] was 6.16%. It also gave a viability, T/C [10] of 3.96%, a viability, T/C [11] of 4.03% and a viability, T/C [12] of 4.38%. It also gave a viability, T/C [13] of 48.4%, a viability, T/C [14] of 11.8% and a viability, T/C [15] of 5.97%. For the same molecule, the viability, T/C [16] was 5.08%, the viability, T/C [17] was 4.16% and the viability, T/C [18] was 5.11%. For the same molecule, the viability, T/C [19] was 58.5%, the viability, T/C [20] was 11.5% and the viability, T/C [21] was 5.09%. For the same molecule, the viability, T/C [22] was 6.05%, the viability, T/C [23] was 4.42% and the viability, T/C [24] was 4.44%. For the same molecule, the viability, T/C [25] was 53.9%, the viability, T/C [26] was 15.8% and the viability, T/C [27] was 7.15%. It also gave a viability, T/C [28] of 5.85%, a viability, T/C [29] of 4.13% and a viability, T/C [30] of 4.16%. It also gave a viability, T/C [31] of 61.3%, a viability, T/C [32] of 12.8% and a viability, T/C [33] of 6.51%. It also gave a viability, T/C [34] of 4.55%, a viability, T/C [35] of 4.33% and a viability, T/C [36] of 4.73%.
COc1ccc([C@@H](O)c2cc(-c3ncnc4cc(N5CCOCC5)ccc34)c(F)cc2Cl)nn1 + COC1C(OC(N)=O)C(O)C(Oc2ccc3c(O)c(NC(=O)c4ccc(O)c(CC=C(C)C)c4)c(=O)oc3c2C)OC1(C)C gave an IC50 (second compound 0.0316 µM) of 8.63 µM, an IC50 (second compound 0.1 µM) of 8.03 µM and an IC50 (second compound 0.316 µM) of 7.09 µM. It also gave an IC50 (second compound 1 µM) of 9.18 µM, an IC50 (second compound 3.16 µM) of 8.15 µM and an IC50 (second compound 10 µM) of 9.75 µM. For the same molecule, the viability, T/C [1] was 104%, the viability, T/C [2] was 92.5% and the viability, T/C [3] was 97.9%. The viability, T/C [4] was 89%, the viability, T/C [5] was 78.4% and the viability, T/C [6] was 45.3%. It also gave a viability, T/C [7] of 95.3%, a viability, T/C [8] of 104% and a viability, T/C [9] of 97.9%. The viability, T/C [10] was 106%, the viability, T/C [11] was 99.5% and the viability, T/C [12] was 38.3%. For the same molecule, the viability, T/C [13] was 101%, the viability, T/C [14] was 98% and the viability, T/C [15] was 101%. The viability, T/C [16] was 87.7%, the viability, T/C [17] was 77.9% and the viability, T/C [18] was 38.3%. It also gave a viability, T/C [19] of 94.3%, a viability, T/C [20] of 97.2% and a viability, T/C [21] of 97.1%. For the same molecule, the viability, T/C [22] was 100%, the viability, T/C [23] was 76.2% and the viability, T/C [24] was 48%. For the same molecule, the viability, T/C [25] was 105%, the viability, T/C [26] was 108% and the viability, T/C [27] was 97.1%. The viability, T/C [28] was 103%, the viability, T/C [29] was 79.7% and the viability, T/C [30] was 43.5%. It also gave a viability, T/C [31] of 102%, a viability, T/C [32] of 97.8% and a viability, T/C [33] of 98%. For the same molecule, the viability, T/C [34] was 96.3%, the viability, T/C [35] was 90.9% and the viability, T/C [36] was 48.8%.
